From US10286063B2 (priority 2015, dated 2019)
Entries after “also recorded” stand apart in the source; their conditions may differ.

What was measured:
PBMC = type: cell-based, human
Normal subject PBMC = type: cell-based, human

SRKLLLIVQALRDNLEPG [Peptide H7N9-11]
% Inhibition by HLA-DR blocking Ab (PBMC): increased response | Effect of blocking HLA-DR on peptide-induced T cell response (in words) (PBMC): the response increased in the presence of the blocking antibody; also recorded: response was absent except when HLA-DR was blocked

WKQWLSLKNTLTQGSL [Peptide H7N9-14B]
suppression of T cell responses to HA peptides from circulating IAV strains (Normal subject PBMC): Reduced responses to the pool of IAV peptides (1-4)

KGILGFVFTLTVPSERGLQ [Peptide H7N9-3]
% Inhibition by HLA-DR blocking Ab (PBMC): 97% | Effect of blocking HLA-DR on peptide-induced T cell response (in words) (PBMC): only partially inhibited

AVKLYKKLKREMTFHGA [Peptide H7N9-9]
% Inhibition by HLA-DR blocking Ab (PBMC): 100% | suppression of T cell response to pool of H7N9 ICS peptides on co-incubation (Normal subject PBMC): did not suppress T cell responses to the pool of H7N9 epitopes

PRYVKQNTLKLATG [IAV-3, reference compound]
% Inhibition by HLA-DR blocking Ab (PBMC): 78% | Effect of blocking HLA-DR on peptide-induced T cell response (in words) (PBMC): only partially inhibited

QITFMQALQLLLEVE [Peptide H7N9-12]
% Inhibition by HLA-DR blocking Ab (PBMC): 100%

YAEMKWLLSNTDNAAFPQ [Peptide H7N9-2]
% Inhibition by HLA-DR blocking Ab (PBMC): 100%

RIDFHWLMLNPNDTVTFS [Peptide H7N9-1]
% Inhibition by HLA-DR blocking Ab (PBMC): 46% | Effect of blocking HLA-DR on peptide-induced T cell response (in words) (PBMC): only partially inhibited

DKLYERVKRQLRENAEED [Peptide H7N9-8]
% Inhibition by HLA-DR blocking Ab (PBMC): 89% | Effect of blocking HLA-DR on peptide-induced T cell response (in words) (PBMC): only partially inhibited

AANIIGILHLILWILDRL [Peptide H7N9-10]
% Inhibition by HLA-DR blocking Ab (PBMC): 68% | Effect of blocking HLA-DR on peptide-induced T cell response (in words) (PBMC): only partially inhibited

PKYVKSTKLRLATG [IAV-1, reference compound]
% Inhibition by HLA-DR blocking Ab (PBMC): 100%

PRYVKQRSLLLATG [Peptide H7N9-13]
% Inhibition by HLA-DR blocking Ab (PBMC): 100% | suppression of T cell response to pool of H7N9 ICS peptides on co-incubation (Normal subject PBMC): significantly suppressed T cell response to the pooled peptides; also recorded: significantly decreased | suppression of T cell responses to HA peptides from circulating IAV strains (Normal subject PBMC): significantly suppressed T cell response to IAV-3; also recorded: Reduced responses to the pool of IAV peptides (1-4); also recorded: able to suppress responses to other immunodominant HA peptides from circulating IAV strains

IVYWKQWLSLKNLTQ [Peptide H7N9-14A]
% Inhibition by HLA-DR blocking Ab (PBMC): 100% | suppression of T cell responses to HA peptides from circulating IAV strains (Normal subject PBMC): Reduced responses to the pool of IAV peptides (1-4)

PRYVKQSTLKLATG [IAV-2, reference compound]
% Inhibition by HLA-DR blocking Ab (PBMC): 73% | Effect of blocking HLA-DR on peptide-induced T cell response (in words) (PBMC): only partially inhibited

PKYVKSNRLVLATG [IAV-4, reference compound]
% Inhibition by HLA-DR blocking Ab (PBMC): 96% | Effect of blocking HLA-DR on peptide-induced T cell response (in words) (PBMC): only partially inhibited

QPEWFRNVLSIAPIMFSNK [Peptide H7N9-4]
% Inhibition by HLA-DR blocking Ab (PBMC): 100%
